Data published in patent US20110250184A1, “METHODS FOR DETERMINING EFFICACY OF A THERAPEUTIC REGIMEN AGAINST DELETERIOUS EFFECTS OF CYTOTOXIC AGENTS IN HUMAN” (priority 2008, published 2011).

Test system: human bone marrow cells
Experiment: In vitro radiation protection of human bone marrow cells (methocult CFU)
Assay type: cell-based
Protocol: FIG. 3. In vitro radiation protection of human bone marrow cells. Human bone marrow cells were treated with increasing concentrations of ON 01210.Na for 3 hours, and then irradiated with increasing doses of ionizing radiation. The cells were plated into methocult and the total number of CFUs was determined 14 days later.
Radiation protection assays were then performed (FIG. 3). Cells were treated with ON 01210.Na for 3 hours, irradiated, and plated in methocult. The total number of colony forming units was determined 14 days later. […] This compared very favorably when analyzed against protection studies using amifostine as a positive control.
Human bone marrow cells were treated with increasing concentrations of ON 01210.Na for 3 hours, and then irradiated with increasing doses of ionizing radiation. The cells were plated into methocult and the total number of CFUs was determined 14 days later.
When we plotted the survival curve at the optimal concentration of ON 01210.Na (FIG. 3C) we were able to calculate a dose reduction factor (DRF) of 1.6. We also tested the radiation protection activity of amifostine. Amifostine concentrations were selected that closely mimicked the therapeutic plasma concentrations. […] The calculated DRF value of 1.5 was determined from these experiments.

NCCCNCCSP(=O)(O)O [amifostine, reference compound]
optimal concentration for radiation protection (amifostine): 0.25 mM | dose reduction factor (DRF) (amifostine 0.25 mM (optimal)): 1.5 | range of concentrations that protected cells (data not shown): narrow range of concentrations
